Like-named read-outs stand apart in the source and are kept apart here.
Tests used:
[1] = target: human P2X3 receptor (Homo sapiens (Human), UniProt P56373); assay: Intracellular calcium measurement (FLIPR, Fluo-4) of antagonist activity at human P2X3 receptors; format: cell-based; conditions: read-out: hP2X3 IC50
How it was run: (§1)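 Antagonism quantified from peak calcium fluorescence (Fluo-4, FLIPR, 90 sec read) evoked by EC80 α,β-Me-ATP, after a 30 min, 37° C. compound pretreatment in 1% DMSO. Human P2X3- or P2X2/3-expressing cells used; triplicate means fitted for IC50, percent maximal inhibition and Hill coefficient.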

[2] = target: human P2X2/3 receptor (Homo sapiens (Human), UniProt P56373+Q9UBL9); assay: Intracellular calcium measurement (FLIPR, Fluo-4) of antagonist activity at human P2X2/3 receptors; format: cell-based
How it was run: as §1

[3] = human P2X3, FLIPR calcium assay, agonist α,β-Me-ATP
[4] = human P2X2/3, FLIPR calcium assay, agonist α,β-Me-ATP, read-out: hP2X2/3 IC50

human P2X2/3 receptor, sequence (P56373 whole entry): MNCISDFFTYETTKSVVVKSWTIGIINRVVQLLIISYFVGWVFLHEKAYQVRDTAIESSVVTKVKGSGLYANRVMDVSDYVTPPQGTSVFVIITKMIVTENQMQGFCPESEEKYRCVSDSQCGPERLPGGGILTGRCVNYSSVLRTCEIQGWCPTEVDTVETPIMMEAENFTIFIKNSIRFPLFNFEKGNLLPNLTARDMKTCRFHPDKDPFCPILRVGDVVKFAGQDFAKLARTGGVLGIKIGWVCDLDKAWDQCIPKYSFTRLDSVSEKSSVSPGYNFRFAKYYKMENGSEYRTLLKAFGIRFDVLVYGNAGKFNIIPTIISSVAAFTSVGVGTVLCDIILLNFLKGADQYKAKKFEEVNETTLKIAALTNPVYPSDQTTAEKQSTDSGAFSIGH
human P2X2/3 receptor, sequence (Q9UBL9 whole entry): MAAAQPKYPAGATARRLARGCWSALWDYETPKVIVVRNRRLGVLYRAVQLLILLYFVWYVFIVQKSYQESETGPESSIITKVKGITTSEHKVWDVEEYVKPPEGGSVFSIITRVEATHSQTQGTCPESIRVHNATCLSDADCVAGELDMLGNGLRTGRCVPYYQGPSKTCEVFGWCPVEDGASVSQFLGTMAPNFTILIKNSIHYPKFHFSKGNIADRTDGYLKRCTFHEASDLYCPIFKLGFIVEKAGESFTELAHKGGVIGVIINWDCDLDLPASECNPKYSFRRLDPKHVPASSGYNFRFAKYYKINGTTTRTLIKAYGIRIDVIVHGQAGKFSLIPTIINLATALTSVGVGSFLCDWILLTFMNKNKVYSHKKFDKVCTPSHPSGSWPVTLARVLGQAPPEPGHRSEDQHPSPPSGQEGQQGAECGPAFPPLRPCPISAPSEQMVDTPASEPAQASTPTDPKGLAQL
human P2X3 receptor, sequence (P56373 whole entry): as the sequence (P56373 whole entry) above

Row | SMILES | IC50 [1, 3] [nM] | IC50 [2, 4] [nM] | IC50 [1] [nM] | IC50 ([2]; hP2X2/3 IC50 (nM)) [nM]
1 | Cc1cnc([C@@H](C)NC(=O)c2cc(OC[C@@H]3CCCO3)cc(-c3ncc(C)s3)c2)cn1 [Example 57, N-[(1R)-1-(5-Methylpyrazin-2-yl)ethyl]-3-(5-methyl-1,3-thiazol-2-yl)-5-[(2S)-tetrahydrofuran-2-ylmethoxy]benzamide] | 25 | 2840 | – | –
2 | Cc1cnc(-c2cc(OCC3CCOCC3)cc(C(=O)NC(C)c3ncc(Cl)cc3F)c2)s1 (stereo not drawn) [Example 95, N-[1-(5-Chloro-3-fluoropyridin-2-yl)ethyl]-3-(5-methyl-1,3-thiazol-2-yl)-5-(tetrahydro-2H-pyran--4-ylmethoxy)benzamide] | 2 | 129 | – | –
3 | Cc1cnc(CNC(=O)c2cc(OC[C@@H]3CCOC3)cc(-c3ncc(C)s3)c2)cn1 [Example 76, N-[(5-Methylpyrazin-2-yl)methyl]-3-(5-methyl-1,3-thiazol-2-yl)-5-[(3R)-tetrahydrofuran-3-ylmethoxy]benzamide] | 201 | 5790 | – | –
4 | Cc1ccc(CNC(=O)c2cc(O[C@@H]3CCOC3)cc(-c3ncc(C)s3)c2)nn1 [Example 17, N-[(6-methylpyridazin-3-yl)methyl]-3-(5-methyl-1,3-thiazol-2-yl)-5-[(3R)-tetrahydrofuran-3-yloxy]benzamide] | 35 | 1010 | – | –
5 | Cc1cnc([C@@H](C)NC(=O)c2cc(OCC3CC3)cc(-c3ncc(C)s3)c2)cn1 [Example 4, 3-(Cyclopropylmethoxy)-N-[(1R)-1-(5-methylpyrazin-2-yl)ethyl]-5-(5-methyl-1,3-thiazol-2-yl)benzamide] | 9 | 98 | – | –
6 | Cc1cnc(-c2cc(O[C@H]3CN4CCC3CC4)cc(C(=O)N[C@H](C)c3cnc(C(F)(F)F)nc3)c2)s1 [Example 168, 3-[(3R)-1-azabicyclo[2.2.2]oct-3-yloxy]-5-(5-methyl-1,3-thiazol-2-yl)-N-{(1R)-1-[2-(trifluoromethyl)pyrimidin-5-yl]ethyl}benzamide] | – | – | 19 | 1600
7 | Cc1cnc([C@@H](C)NC(=O)c2cc(Oc3ccnc(C)c3)cc(-c3ncc(C)s3)c2)cn1 [Example 102, N-[(1R)-1-(5-Methylpyrazin-2-yl)ethyl]-3-[(2-methylpyridin-4-yl)oxy]-5-(5-methyl-1,3-thiazol-2-yl)benzamide] | 10 | 57 | – | –
8 | Cc1cnc(-c2cc(O[C@@H]3CN4CCC3CC4)cc(C(=O)N[C@H](C)c3ccc(C(F)(F)F)nc3)c2)s1 [Example 175, 3-[(3S)-1-azabicyclo[2.2.2]oct-3-yloxy]-5-(5-methyl-1,3-thiazol-2-yl)-N-{(1R)-1-[6-(trifluoromethyl)pyridin-3-yl]ethyl}benzamide] | – | – | 23 | 1270
9 | CC(C)c1cnc(-c2cc(OC[C@@H]3CCCO3)cc(C(=O)N[C@H](C)c3cnc(C(F)(F)F)nc3)c2)s1 [Example 290, 3-[5-(propan-2-yl)-1,3-thiazol-2-yl]-5-[(2S)-tetrahydrofuran-2-ylmethoxy]-N-{(1R)-1-[2-(trifluoromethyl)pyrimidin-5-yl]ethyl}benzamide] | – | 368 | 31 | –
10 | Cc1cnc(-c2cc(OCC3CCOC3)cc(C(=O)NC(C)c3ncc(F)cc3Cl)c2)s1 (stereo in doubt) [Example 69, N-[1-(3-Chloro-5-fluoropyridin-2-yl)ethyl]-3-(5-methyl-1,3-thiazol-2-yl)-5-[(3R)-tetrahydrofuran-3-ylmethoxy]benzamide] | 15 | 937 | – | –
11 | Cc1cnc(-c2cc(OCC3CC3)cc(C(=O)N[C@H](C)c3nnc(C)s3)c2)s1 [Example 7, 3-(Cyclopropylmethoxy)-N-[(1R)-1-(5-methyl-1,3,4-thiadiazol-2-yl)ethyl]-5-(5-methyl-1,3-thiazol-2-yl)benzamide] | 8 | 106 | – | –
12 | Cc1cnc(-c2cc(OC3COC3)cc(C(=O)N[C@H](C)c3ccc(C(F)F)nc3)c2)s1 [Example 164] | 60 | 1110 | – | –
13 | Cc1ccc([C@@H](C)NC(=O)c2cc(O[C@@H]3CCOC3)cc(-c3ncc(C)s3)c2)cn1 [Example 24, N-[(1R)-1-(6-Methylpyridin-3-yl)ethyl]-3-(5-methyl-1,3-thiazol-2-yl)-5-[(3R)-tetrahydrofuran-3-yloxy]benzamide] | 36 | 332 | – | –
14 | Cc1cnc(-c2cc(O[C@@H]3CCOC3)cc(C(=O)N[C@H](C)c3ccc(C(F)(F)F)nn3)c2)s1 [Example 19, 3-(5-Methyl-1,3-thiazol-2-yl)-5-[(3R)-tetrahydrofuran-3-yloxy]-N-{(1R)-1-[6-(trifluoromethyl)pyridazin-3-yl]ethyl}benzamide] | 19 | 749 | – | –
15 | Cc1cnc(-c2cc(OCC3CN(C)CCO3)cc(C(=O)N[C@H](C)c3cnc(C(F)(F)F)nc3)c2)s1 (stereo partly drawn) [Example 353, 3-{[4-methylmorpholin-2-yl]methoxy}-5-(5-methyl-1,3-thiazol-2-yl)-N-{(1R)-1-[2-(trifluoromethyl)pyrimidin-5-yl]ethyl}benzamide] | 7 | 427 | – | –
16 | Cc1cnc(-c2cc(O[C@H]3CN4CCC3CC4)cc(C(=O)N[C@H](C)c3ccc(C(F)(F)F)nc3)c2)s1 [Example 172, 3-[(3R)-1-azabicyclo[2.2.2]oct-3-yloxy]-5-(5-methyl-1,3-thiazol-2-yl)-N-{(1R)-1-[6-(trifluoromethyl)pyridin-3-yl]ethyl}benzamide] | – | – | 31 | 2110
17 | Cc1cnc(-c2cc(OC[C@@H]3CCOC3)cc(C(=O)NC(C)c3ncc(Cl)cc3F)c2)s1 (stereo partly drawn) [Example 78, N-[1-(5-Chloro-3-fluoropyridin-2-yl)ethyl]-3-(5-methyl-1,3-thiazol-2-yl)-5-[(3R)-tetrahydrofuran-3-ylmethoxy]benzamide] | 6 | 83 | – | –
18 | Cc1ccc([C@@H](C)NC(=O)c2cc(O[C@H]3CCOC3)cc(-c3ncc(C)s3)c2)nn1 [Example 25, N-[(1R)-1-(6-Methylpyridazin-3-yl)ethyl]-3-(5-methyl-1,3-thiazol-2-yl)-5-[(3S)-tetrahydrofuran-3-yloxy]benzamide] | 39 | 975 | – | –

Continued, in another order:

Row | IC50 [1, 3] [nM] | IC50 [2, 4] [nM] | SMILES | IC50 [1] [nM] | IC50 ([2]; hP2X2/3 IC50 (nM)) [nM]
19 | 62 | 781 | CC(C)c1cnc(-c2cc(OC[C@H]3CCOC3)cc(C(=O)N[C@H](C)c3ccc(C(F)(F)F)nn3)c2)s1 [Example 298, 3-[5-(propan-2-yl)-1,3-thiazol-2-yl]-5-[(3S)-tetrahydrofuran-3-ylmethoxy]-N-{(1R)-1-[6-(trifluoromethyl)pyridazin-3-yl]ethyl}benzamide] | – | –
20 | 32 | 476 | C[C@@H](NC(=O)c1cc(O[C@@H]2CCOC2)cc(-c2ncc(Cl)s2)c1)c1ccc(C(F)(F)F)nn1 [Example 318, 3-(5-chloro-1,3-thiazol-2-yl)-5-[(3R)-tetrahydrofuran-3-yloxy]-N-{(1R)-1-[6-(trifluoromethyl)pyridazin-3-yl]ethyl}benzamide] | – | –
21 | 29 | 2270 | CCc1cnc(-c2cc(OC[C@@H]3CNCCO3)cc(C(=O)N[C@H](C)c3ccc(C(F)(F)F)nn3)c2)s1 [Example 414, 3-(5-ethyl-1,3-thiazol-2-yl)-5-[(2S)-morpholin-2-ylmethoxy]-N-{(1R)-1-[6-(trifluoromethyl)pyridazin-3-yl]ethyl}benzamide] | – | –
22 | 17 | 1560 | Cc1cnc(-c2cc(OCC34CC(CO3)N(C(C)C)C4)cc(C(=O)N[C@H](C)c3cnc(C(F)(F)F)nc3)c2)s1 (stereo partly drawn) [Example 405, 3-[(5-isopropyl-2-oxa-5-azabicyclo[2.2.1]hept-1-yl)methoxy]-5-(5-methyl-1,3-thiazol-2-yl)-N-{(1R)-1-[2-(trifluoromethyl)pyrimidin-5-yl]ethyl}benzamide] | – | –
23 | 33 | 170 | C[C@@H](NC(=O)c1cc(OC[C@@H]2CCOC2)cc(-c2ncc(C3CCC3)s2)c1)c1cnc(C(F)(F)F)nc1 [Example 263, 3-(5-cyclobutyl-1,3-thiazol-2-yl)-5-[(3R)-tetrahydrofuran-3-ylmethoxy]-N-{(1R)-1-[2-(trifluoromethyl)pyrimidin-5-yl]ethyl}benzamide] | – | –
24 | 13 | 432 | Cc1cnc(-c2cc(OCC3CN(C(C)C)CCO3)cc(C(=O)N[C@H](C)c3cnc(C(F)(F)F)nc3)c2)s1 (stereo in doubt) [Example 382, 3-(5-methyl-1,3-thiazol-2-yl)-5-{[(2R)-4-(propan-2-yl)morpholin-2-yl]methoxy}-N-{(1R)-1-[2-(trifluoromethyl)pyrimidin-5-yl]ethyl}benzamide] | – | –
25 | 30 | 1470 | Cc1cnc(-c2cc(OC[C@@H]3CN(C)C(=O)CO3)cc(C(=O)N[C@H](C)c3cnc(C(F)(F)F)nc3)c2)s1 [Example 401, 3-{[(2S)-4-methyl-5-oxomorpholin-2-yl]methoxy}-5-(5-methyl-1,3-thiazol-2-yl)-N-{(1R)-1-[2-(trifluoromethyl)pyrimidin-5-yl]ethyl}benzamide] | – | –
26 | 57 | 1440 | Cc1cnc(-c2cc(OCC3(F)CNC3)cc(C(=O)N[C@H](C)c3cnc(C(F)(F)F)nc3)c2)s1 [Example 358, 3-[(3-fluoroazetidin-3-yl)methoxy]-5-(5-methyl-1,3-thiazol-2-yl)-N-{(1R)-1-[2-(trifluoromethyl)pyrimidin-5-yl]ethyl}benzamide] | – | –
27 | 21 | 1050 | Cc1cnc(-c2cc(OCC3CC(F)CN3C)cc(C(=O)N[C@H](C)c3ccc(C(F)(F)F)nc3)c2)s1 (stereo partly drawn) [Example 365, 3-{[4-fluoro-1-methylpyrrolidin-2-yl]methoxy}-5-(5-methyl-1,3-thiazol-2-yl)-N-{(1R)-1-[6-(trifluoromethyl)pyridin-3-yl]ethyl}benzamide] | – | –

Reference: patent US10174016B2 (BAYER AKTIENGESELLSCHAFT, priority 2014, dated 2019)
